The results in this text go back to patent publication US12030908B2, “Antimicrobial compounds, compositions, and uses thereof” (Lakewood Amedex, Inc., priority 2017, dated 2024).

Like-named read-outs stand apart in the source and are kept apart here.

The nature of data set [1]: Body weight in the Aspergillus fumigatus lung infection model (Example 24). The data set is classed as in vivo, BALB/c mice. Particulars: Part A.
The subject of data set [2] is methicillin resistant Staphylococcus aureus (USA300). The data set is classed as in vivo, SKH-1 hairless mice. Particulars: for decrease in CFU burden: 6 hours post challenge. The method, then:
SKH-1 hairless mice have the outer layer of skin cells removed by stripping with 7 applications and removals of surgical tape. Immediately following tape stripping, mice receive a topical inoculation of methicillin resistant Staphylococcus aureus (USA300) at a targeted challenge of 6.0 log10 CFU. Four hours following challenge, mice are treated with test articles or vehicle controls, and at two hours following treatment, mice have skin harvested for CFU burden enumeration.
SKH-1 mice are obtained from Charles River Laboratories. The age of the mice on Day 0 is approximately 6-8 weeks. Only female mice are selected for the study. Animals are handled in accordance with AUP number TP-18. Mice are housed in solid-bottom micro-isolator cages on stainless steel racks. Animals are fed irradiated Teklad Global 2918 Rodent Diet and water ad libitum. Bedding is provided in the form of irradiated Teklad ⅛″ corn cob bedding 7902. Animals are maintained in a bioBubble® Clean Room which provides H.E.P.A filtered air into the bubble environment at 100 complete air changes per hour. The environment is controlled to a temperature range of 74°±5° F. and a humidity range of 30-70%. Fluorescent lighting provides illumination for 12 hours per day. Mice are acclimated for a minimum of 24 hours prior to study start. The animals are observed for general health and acceptability for use in this study. Only animals deemed healthy are included in this study.
On Day 0 immediately prior to infection, each mouse is anesthetized using isoflurane and the dorsal area receives 7 applications and removals of Nexcare™ (3M) surgical tape in order to remove the outermost epidermal layer of skin.
The challenge microorganism is prepared. Methicillin resistant Staphylococcus aureus (USA300) is grown overnight at 37° C. at ambient atmosphere trypticase soy agar plates supplemented with 5% sheep blood cells. The culture is aseptically swabbed and transferred to tubes sterile water until optical density reaches approximately 0.75 at 600 nm. The cultures are diluted to provide challenge inoculate of 6.0 log10 CFU per mouse in a volume of 100 μL. Inoculum count is estimated before inoculation by optical density and confirmed after inoculation by dilution and back count.
On Day 0 at 0 hours, animals are anesthetized using isoflurane, brought to a surgical plane, and infected with bacteria via topical application, spread in the tape stripped area of approximately 0.75″×0.75″. Challenge is allowed to dry slightly before mice are brought out of anesthesia.
The test articles are prepared in a manner to minimize endotoxin and bacterial contamination. A 10% (100 mg/mL) solution of Nu-8 is prepared in 0.9% sterile saline. A 20% Nu-8 solution for 50/50 mixture in a hydrogel vehicle (for 10% final Nu-8 concentration) is made using sterile water. Citric acid is used to adjust the solutions to pH 3.5. The test articles are stored at 4° C.
A 0.9% sterile saline adjusted to pH 3.5 with citric acid is prepared as a vehicle/negative control and stored at room temperature. A hydrogel vehicle adjusted to pH 3.5 with citric acid is prepared as another vehicle/negative control. The hydrogel vehicle is prepared by mixing equal volumes of hydrogel and 0.9% sterile saline with final pH of the mixture adjusted to pH 3.5.
At exactly four hours following challenge, mice in Groups 2-5 receive a topical application of Nu-8 (in either saline or hydrogel vehicle), saline vehicle, or gel vehicle, in a volume of […] spread on the dorsal area previously stripped and inoculated with bacteria. […] Mice are housed individually following treatment until harvest time.
Mice are observed at least twice daily during the study period and are randomly assigned to experimental groups as shown in TABLE 10. At the time indicated in TABLE 10, mice are humanely euthanized via CO2 overexposure. Mice are harvested at 6 hours post challenge (2 hours post-treatment). […]

Data set [3] concerns wild type P. aeruginosa (PAO1; K2732). Nature of the data set: Bacterial cytological profiling at pH 4, 5.5, 7 (Example 7), P. aeruginosa. The format is cell-based. Particulars: pH 7, 225 mg/mL. How it is done: This bacterial cytological profiling (BCP) investigation uses methods and materials described previously by Nonejuie, P., Burkart, M., Poglianoa, K., Pogiano, J. (2013). Bacterial cytological profiling rapidly identifies the cellular pathways targeted by antibacterial molecules. Proc. Natl. Acad. Sci. U.S.A. 110(40):16169-16174. doi: 10.1073/pnas.1311066110.
For viable cell counts, cells are grown to OD600≈0.4 and diluted 1:1 into buffered or unbuffered media containing various compound concentrations. Samples are then collected and serially diluted (1:10) on a 96 well plate. Five microliters from each well are spotted on LB plates, incubated at 30° C., and viable cells are counted the next day.
Samples are collected at 10, 30, 120, and 240 min of exposure for viable cell count and imaging. For imaging, E. coli and S. aureus 200 μL of treated cells per time point are stained with 0.8 μg/mL FM4-64, 1.5 μg/mL DAPI, and 0.4 μM SYTOXGreen (Molecular Probes/Invitrogen). P. aeruginosa samples are stained 0.4 μM SYTOX Green, 28 μg/mL DAPI, and 1 μg/mL FM 4-64. Cells are transferred to an agarose pad (20% LB, 1% agarose) for imaging.
For Nu-3 and Nu-8 stocks (at pH 4, 5.5 and 7), stock concentration is 500 mg/mL. For pH 4, the stocks are prepared by dissolving Nu-3 in 25 mM citrate buffer and Nu-8 in 350 mM citric acid. […]

On to `CCCCOP(=O)(O)OC[C@H]1O[C@@H](n2ccc(N)nc2=O)C[C@@H]1OP(=O)(O)OCCCC` [Nu-8, sodium ((2R,3S,5R)-5-(4-amino-2-oxopyrimidin-1(2H)-yl)-3-((butoxyoxidophosphor-yl)oxy)tetrahydrofuran-2-yl)methyl butyl phosphate], for which the “Body Weight (g) Mean ± SD” value in data set [1] (3 doses, once daily for 3 days, Day 0) is on record as 25.17 ± 0.75 g; in data set [1] (3 doses, once daily for 3 days, Day 1) it was 24.50 ± 0.55 g; in data set [1] (3 doses, once daily for 3 days, Day 2) it was 23.17 ± 0.75 g; in data set [1] (3 doses, once daily for 3 days, Day 3 (n = 3)) it was 22.33 ± 0.58 g; in data set [1] (5 doses, once daily for 5 days, Day 0), 25.33 ± 0.82 g; in data set [1] (5 doses, once daily for 5 days, Day 1), 24.33 ± 0.52 g. Moreover, the “Body Weight (g) Mean ± SD” value in data set [1] (5 doses, once daily for 5 days, Day 2) is 23.33 ± 0.52 g; in data set [1] (5 doses, once daily for 5 days, Day 3 (n = 3)), 22.67 ± 0.58 g; in data set [1] (single dose group, Day 0), 25.50 ± 0.55 g; in data set [1] (single dose group, Day 1) it was 24.17 ± 0.41 g. The “Body Weight (g) Mean” value in data set [1] (5 doses, once daily for 5 days, Day 4 (n = 2)) is reported as 22.50 g; in data set [1] (5 doses, once daily for 5 days, Day 5 (n = 2)), 22.00 g. Besides, the “change in mean body weights” value in data set [1] (vehicle and treatment groups) is on record as “Decreases in mean body weights were observed”. Moreover, the “decrease in CFU burden” value in data set [2] (10% Nu-8 in hydrogel pH 3.5, topical) is around 1.0 log10 reduction; in data set [2] (10% Nu-8 in saline pH 3.5, topical), around 1.0 log10 reduction. The “percentage reduction compared to the controls (FIG. 3)” value was 87% in data set [2] (Nu-8 gel) and 90% in data set [2] (Nu-8 saline). Also, the “colony forming units (FIG. 1)” value in data set [2] (Nu-8 hydrogel, two hours post treatment) was “approximately 40,000 CFU per square millimeter”; in data set [2] (Nu-8 in saline, two hours post treatment), “approximately 30,000 CFU per square millimeter”. Moreover, in data set [2] (Nu-8 in saline or hydrogel, two hours post treatment), the “reduction in bacteria vs saline and gel controls” value is listed as “ten-fold”. Moreover, the “acute adverse events associated with the treatments” value in data set [2] (topical, 10% Nu-8 in saline or hydrogel) is “None of the study subjects displayed any acute adverse events”. In addition, in data set [3], the cell growth result is listed as “slightly lower than that at pH 7 alone”. The compound further returned a cell permeability in data set [3] (10 min, not persistent) of around 37%.
